Experimental findings from US20120322715A1, “SERINE HYDROLASE FORMULATION” (NOVOZYMES A/S, priority 2010, published 2012) are described below.

This data set concerns Lipoclean lipase. In words: Storage stability of liquid Lipoclean lipase formulation: residual lipase activity (PNP-Palmitate hydrolysis, 405 nm) versus frozen reference. The class given is biochemical. Particulars: 2% enzyme protein, sorbitol and glycerol, 0.08% Z-GAY-H, compared with frozen reference sample. On the procedure: Lipoclean formulations, per se (LCLU/g) residual activities: The Lipase was formulated from crude concentrate with standard formulation ingredients (sorbitol and glycerol) with and without the serine protease inhibitor (2% enzyme protein, 0.08% Z-GAY-H added with a 1% DMSO solution). The solution was split into separate vials which were incubated at different temperature and times and compared in activity with a frozen reference sample frozen directly after mixing. The lipase activity was measured by ester bond hydrolysis in the substrate PNP-Palmitate (C:16) and releases PNP which is yellow and can be detected at 405 nm.

For “Z-GAY-H [0.08% serine protease inhibitor]”, the “residual activities (lipase)” value is listed as 71% (2 weeks, 50° C.); 70% (4 weeks, 40° C.); 56% (4 weeks, 50° C.).
